Reference: PubChem BioAssay (NCI)
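How tested: cells in 96-well plates exposed to compound for 48 hours at five concentrations. At the TGI there is no net growth.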

Columns and labels:
Test in all cases: inhibition of tumour cell growth, NCI panel, 48 h
[1] = tested on: 786-0 renal
[2] = tested on: A498 renal
[3] = tested on: A549 NSCLC
[4] = tested on: ACHN renal
[5] = tested on: CAKI-1 renal
[6] = tested on: CCRF-CEM leukemia
[7] = tested on: COLO 205 colon
[8] = tested on: DLD-1 colon
[9] = tested on: DMS 114 small cell lung
[10] = tested on: DMS 273 small cell lung
[11] = tested on: EKVX NSCLC
[12] = tested on: HCC-2998 colon
[13] = tested on: HCT-116 colon
[14] = tested on: HCT-15 colon
[15] = tested on: HL-60(TB) leukemia
[16] = tested on: HOP-62 NSCLC
[17] = tested on: HOP-92 NSCLC
[18] = tested on: HT29 colon
[19] = tested on: IGROV1 ovarian
[20] = tested on: K-562 leukemia
[21] = tested on: KM12 colon
[22] = tested on: KM20L2 colon
[23] = tested on: LXFL 529 NSCLC
[24] = tested on: M14 melanoma
[25] = tested on: M19-MEL melanoma
[26] = tested on: MALME-3M melanoma
[27] = tested on: NCI-H226 lung
[28] = tested on: NCI-H23 lung
[29] = tested on: NCI-H460 lung
[30] = tested on: NCI-H522 lung
[31] = tested on: OVCAR-3 ovarian
[32] = tested on: OVCAR-4 ovarian
[33] = tested on: OVCAR-5 ovarian
[34] = tested on: OVCAR-8 ovarian
[35] = tested on: RXF-631 renal
[36] = tested on: SF-268 CNS
[37] = tested on: SF-295 CNS
[38] = tested on: SF-539 CNS
[39] = tested on: SK-MEL-2 melanoma
[40] = tested on: SK-MEL-28 melanoma
[41] = tested on: SK-MEL-5 melanoma
[42] = tested on: SN12C renal
[43] = tested on: SNB-19 CNS
[44] = tested on: SNB-75 CNS
[45] = tested on: SNB-78 CNS
[46] = tested on: SW-620 colon
[47] = tested on: U251 CNS
[48] = tested on: UACC-257 melanoma
[49] = tested on: UACC-62 melanoma
[50] = tested on: UO-31 renal
[51] = tested on: HOP-18 NSCLC
[52] = tested on: LOX IMVI melanoma
[53] = tested on: MOLT-4 leukemia
[54] = tested on: RPMI-8226 leukemia
[55] = tested on: RXF 393 renal
[56] = tested on: SK-OV-3 ovarian
[57] = tested on: SR leukemia
[58] = tested on: TK-10 renal

Measured: TGI

O=C(NC1C2CC3CC(C2)CC1C3)c1ccncn1 (centres undefined)
> 100 µM: [1] | [2] | [3] | [4] | [5] | [6] | [7] | [8] | [9] | [10] | [11] | [12] | [13] | [14] | [15] | [16] | [17] | [18] | [19] | [20] | [21] | [22] | [23] | [24] | [25] | [26] | [27] | [28] | [29] | [30] | [31] | [32] | [33] | [34] | [35] | [36] | [37] | [38] | [39] | [40] | [41] | [42] | [43] | [44] | [45] | [46] | [47] | [48] | [49] | [50]

O=C1OC(CC(=O)c2ccccc2Cl)C(Cl)=C1Cl (centres undefined)
> 100 µM: [1] | [3] | [4] | [5] | [6] | [7] | [8] | [9] | [11] | [12] | [13] | [14] | [15] | [51] | [16] | [17] | [18] | [19] | [20] | [21] | [52] | [23] | [24] | [25] | [26] | [53] | [27] | [28] | [29] | [30] | [31] | [32] | [33] | [34] | [54] | [55] | [35] | [36] | [37] | [38] | [39] | [40] | [41] | [56] | [42] | [43] | [45] | [57] | [46] | [58] | [47] | [48] | [49] | [50]
